From patent publication US12077503B2, “Substituted cyclic amides and their use as herbicides” (FMC CORPORATION, priority 2015, dated 2024)

Assays:
Assay type in all cases: in vivo
[1] = system: sedge, umbrella (small-flower umbrella sedge, Cyperus difformis); assay: Test B flooded paddy test; details: Cyperus difformis, 250 g ai/ha, Flood; 0 to 100 scale where 0 is no effect and 100 is complete control; read-out: Sedge, Umbrella plant response rating
How it was run: (§1)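 Compound goes directly into floodwater once pots are flooded 3 cm above soil, targeting plants at two leaves; the water depth is then held for the test duration. Plants sit 13–15 d in a greenhouse and are rated visually, 100 denoting complete control.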

[2] = system: ducksalad (Heteranthera limosa); assay: Test B flooded paddy test; details: Heteranthera limosa, 250 g ai/ha, Flood; 0 to 100 scale where 0 is no effect and 100 is complete control; read-out: Ducksalad plant response rating
How it was run: as §1

[3] = system: barnyardgrass (Echinochloa crus-galli); assay: Test B flooded paddy test; details: Echinochloa crus-galli, 250 g ai/ha, Flood; 0 to 100 scale where 0 is no effect and 100 is complete control; read-out: Barnyardgrass plant response rating
How it was run: as §1

rice (Oryra sativa) = assay: Test B flooded paddy test; details: Oryza sativa, 250 g ai/ha, Flood; 0 to 100 scale where 0 is no effect and 100 is complete control; read-out: Rice plant response rating
How it was run: as §1

[4] = system: wheat (Triticum aestivum); assay: Test A postemergence; details: Triticum aestivum, post-emergence, 240 h, Postemergence, read-out: Wheat plant response rating (0 to 100 scale)
How it was run: (§2)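 Each rating is a visual injury score from 0 to 100 given about 10 d after treatment, judged against untreated controls kept alongside in the greenhouse. In loam soil–sand blend, seeds got a preemergence directed soil spray, while postemergence plants were 2 to 10 cm tall at spraying.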

[5] = system: giant foxtail (Setaria faberii); assay: Test A postemergence; details: Setaria faberi, post-emergence, 240 h, Postemergence, read-out: Foxtail, Giant plant response rating (0 to 100 scale)
How it was run: as §2

[6] = system: pigweed (Amaranthus retroflexus); assay: Test A postemergence; details: Amaranthus retroflexus, post-emergence, 240 h, Postemergence, read-out: Pigweed plant response rating (0 to 100 scale)
How it was run: as §2

[7] = system: Galium (catchweed bedstraw, Galium aparine); assay: Test A postemergence; details: Galium, post-emergence, 240 h, Postemergence, read-out: Galium plant response rating (0 to 100 scale)
How it was run: as §2

[8] = system: barnyardgrass (Echinochloa crus-galli); assay: Test A postemergence; details: Echinochloa crus-galli, post-emergence, 240 h, Postemergence
How it was run: as §2

[9] = system: blackgrass (Alopecurus myosuroides); assay: Test A postemergence; details: Alopecurus myosuroides, post-emergence, 240 h, Postemergence, read-out: Blackgrass plant response rating (0 to 100 scale)
How it was run: as §2

corn (Zea mays) = assay: Test A postemergence; details: Zea mays, post-emergence, 240 h, Postemergence, read-out: Corn plant response rating (0 to 100 scale)
How it was run: as §2

[10] = system: ryegrass, Italian (Italian ryegrass, Lolium multiflorum); assay: Test A postemergence; details: Lolium multiflorum, post-emergence, 240 h, Postemergence, read-out: Ryegrass, Italian plant response rating (0 to 100 scale)
How it was run: as §2

[11] = system: ragweed (common ragweed, Ambrosia elatior); assay: Test A postemergence; details: Ambrosia artemisiifolia, post-emergence, 240 h, Postemergence, read-out: Ragweed plant response rating (0 to 100 scale)
How it was run: as §2

Kochia (Kochia scoparia) [12] = assay: Test A postemergence; details: Bassia scoparia, post-emergence, 240 h, Postemergence, read-out: Kochia plant response rating (0 to 100 scale)
How it was run: as §2

[13] = system: giant foxtail (Setaria faberii); assay: Test A preemergence; details: Setaria faberi, pre-emergence, 240 h, 0 to 100 scale where 0 is no effect and 100 is complete control, read-out: Foxtail, Giant plant response rating
How it was run: as §2

[14] = system: pigweed (Amaranthus retroflexus); assay: Test A preemergence; details: Amaranthus retroflexus, pre-emergence, 240 h, 0 to 100 scale where 0 is no effect and 100 is complete control, read-out: Pigweed plant response rating
[15] = system: barnyardgrass (Echinochloa crus-galli); assay: Test A preemergence; details: Echinochloa crus-galli, pre-emergence, 240 h, 0 to 100 scale where 0 is no effect and 100 is complete control, read-out: Barnyardgrass plant response rating
How it was run: as §2

[16] = system: ryegrass, Italian (Italian ryegrass, Lolium multiflorum); assay: Test A preemergence; details: Lolium multiflorum, pre-emergence, 240 h, 0 to 100 scale where 0 is no effect and 100 is complete control, read-out: Ryegrass, Italian plant response rating
How it was run: as §2

[17] = system: ragweed (common ragweed, Ambrosia elatior); assay: Test A preemergence; details: Ambrosia artemisiifolia, pre-emergence, 240 h, 0 to 100 scale where 0 is no effect and 100 is complete control, read-out: Ragweed plant response rating
How it was run: as §2

Kochia (Kochia scoparia) [18] = assay: Test A preemergence; details: Bassia scoparia, pre-emergence, 240 h, 0 to 100 scale where 0 is no effect and 100 is complete control, read-out: Kochia plant response rating
How it was run: as §2

[19] = 125 g ai/ha, visual rating about 10 d after treatment
[20] = 31 g ai/ha, 0 is no effect, 100 is complete control
[21] = 125 g ai/ha, preemergence, visual injury rating, approximately 10 d

For `O=C(Nc1ccc(F)c(F)c1F)[C@H]1C(=O)N(CC(F)F)C[C@@H]1c1cccc(C(F)(F)F)c1` [Compound 1297], the pest or weed control at 250 g/ha [1] was 0%, the pest or weed control at 250 g/ha [2] was 0% and the pest or weed control at 250 g/ha [3] was 0%. For the same compound, the pest or weed control at 250 g/ha (rice (Oryra sativa)) was 30%, the plant injury at 125 g/ha [4, 19] was 0% and the plant injury at 31 g/ha [4, 20] was 0%. For the same compound, the pest or weed control at 125 g/ha [5, 19] was 20%, the pest or weed control at 31 g/ha [5, 20] was 0% and the pest or weed control at 125 g/ha [6, 19] was 0%. The pest or weed control at 31 g/ha [6, 20] was 0%, the pest or weed control at 125 g/ha [7, 19] was 0% and the pest or weed control at 31 g/ha [7, 20] was 0%. For the same compound, the pest or weed control at 125 g/ha ([8]; 125 g ai/ha, visual rating about 10 d after treatment, read-out: Barnyardgrass plant response rating (0 to 100 scale, 0 no effect, 100 complete control)) was 20%, the pest or weed control at 31 g/ha ([8]; 31 g ai/ha, 0 is no effect, 100 is complete control, read-out: Barnyardgrass plant response rating (0 to 100 scale)) was 0% and the pest or weed control at 125 g/ha [9, 19] was 0%. For the same compound, the pest or weed control at 31 g/ha [9, 20] was 0%, the plant injury at 125 g/ha (corn (Zea mays); [19]) was 0% and the plant injury at 31 g/ha (corn (Zea mays); [20]) was 0%. The pest or weed control at 125 g/ha [10, 19] was 0%, the pest or weed control at 31 g/ha [10, 20] was 0% and the pest or weed control at 125 g/ha [11, 19] was 0%. For the same compound, the pest or weed control at 31 g/ha [11, 20] was 0%, the pest or weed control at 125 g/ha (Kochia (Kochia scoparia) [12]; [19]) was 0% and the pest or weed control at 31 g/ha (Kochia (Kochia scoparia) [12]; [20]) was 0%. It also gave a pest or weed control at 31 g/ha ([13]; 31 g ai/ha, Preemergence) of 0%, a pest or weed control at 125 g/ha [13, 21] of 80% and a pest or weed control at 31 g/ha ([14]; 31 g ai/ha, Preemergence) of 0%. The pest or weed control at 125 g/ha [14, 21] was 0%, the pest or weed control at 31 g/ha ([15]; 31 g ai/ha, Preemergence) was 20% and the pest or weed control at 125 g/ha [15, 21] was 20%. It also gave a pest or weed control at 31 g/ha ([16]; 31 g ai/ha, Preemergence) of 0%, a pest or weed control at 125 g/ha [16, 21] of 0% and a pest or weed control at 31 g/ha ([17]; 31 g ai/ha, Preemergence) of 0%. For the same compound, the pest or weed control at 125 g/ha [17, 21] was 0%, the pest or weed control at 31 g/ha (Kochia (Kochia scoparia) [18]; 31 g ai/ha, Preemergence) was 0% and the pest or weed control at 125 g/ha (Kochia (Kochia scoparia) [18]; [21]) was 0%.
